In patent US20210379085A1, “HALOGENATED SALICYLANILIDES FOR TREATING THE SYMPTOMS OF DERMATITIS” (Union Therapeutics A/S, priority 2018, published 2021):

Key:
Format in all cases: in vivo, human
[1] = test system: lesional skin of patients with moderate atopic dermatitis; test: Skin thickness in lesional skin biopsies, Phase II atopic dermatitis study (Example 3); settings: Day 22, compared to baseline and compared to vehicle; topical niclosamide 2% once daily 3 weeks
Method: (§1) Patients received topical applications of a niclosamide 2% composition and vehicle once daily for 3 weeks, followed by a 1-week follow up period. Topical niclosamide 2% and vehicle was applied on two separate target lesions of atopic dermatitis (lesions of at least 3×3-cm that are at least 2 cm apart, excluding the face, scalp, genitals, hands, and feet). The application areas (5×5-cm) were randomized (1:1) to once daily application of niclosamide 2% or vehicle at 5 mg/cm^2 without occlusion 6 days per week. Patients came to the study site for all study product application for a total of 3 weeks.
Three skin biopsies were collected in all patients (one from lesional skin at baseline, pre-dosing at Day 1, and two from lesional skin at Day 22 (one where topical niclosamide 2% had been applied and one where the vehicle had been applied). The lesional skin biopsies were analysed for skin thickness and inflammation biomarkers.

[2] = test system: skin barrier and inflammation biomarkers in lesional skin biopsies; test: Microarray (Affymetrix U133A Plus 2) biomarker gene expression in lesional skin biopsies (Example 3)
Method: as §1
(§2) Skin barrier and inflammation biomarker levels were determined from lesional skin biopsies from application areas.
(§3) The skin biopsy samples were analysed by immunohistochemistry (IHC), and by gene expression studies by RT-PCR using TaqMan Low Density Array (TLDA), and by microarray using Affymetrix U133A Plus 2. The immunohistochemistry (IHC) was used to analyse cell biomarkers. The methodologies as disclosed by Guttman-Yassky et al, “Major differences in inflammatory dendritic cells and their products distinguish atopic dermatitis from psoriasis”, The Journal of Allergy and Clinical Immunology, vol. 119, issue 5, pages 1210-1217, 2007, were followed except for that U133A Plus 2-set Gene Chip probe arrays was used instead of U95A-set Gene Chip probe arrays.
Experimental design: The hybridization strategy was in concordance with experimental design principles, by for example keeping all samples from the same patient in the same date, and always include samples from every treatment arm/group.
Quality Control and Pre-processing: Quality control of microarray chips were carried out using standard QC metrics and R package microarray Quality Control. Expression measures were obtained using GCRMA algorithm (Wu & Irizarry, 2004). Several visual and modelling techniques were used to elucidate if batch effect existed. Principal Component analysis plots were used to detect if any evident batch effect existed. If such batch effects were found, they were adjusted using Combat, an empirical Bayes method for adjusting data for batch effects that is robust to outliers in small sample sizes (Johnson, Li, & Rabinovic, 2007). The implementation of Combat by package sva was used.
Probe-sets with at least 5% samples with expression larger than 3 (in log 2-scale) were kept for further analysis. Expression values were modelled using mixed-effect models with fixed factors Visit and Treatment Area and a random effect for each patient. Fold changes for the comparisons of interest were estimated and hypothesis testing was conducted on such comparisons using contrasts under the general framework for linear models in limma package. The inter-replicate correlation was computed by Duplicate Correlation function and the linear model was estimated by ImFit. P-values from the moderated (paired) t-test were adjusted for multiple hypotheses using the Benjamini-Hochberg procedure, which controls for FDR.

[3] = test system: immune cell infiltrates (CD3, langerin, CD11c, FceR1) in lesional skin; test: Immunohistochemistry (IHC) of cell biomarkers in lesional skin biopsies (Example 3); settings: topical 2% niclosamide
Method: as §1, §2, §3

[4] = Day 22, topical administration of 2% niclosamide, p<0.05
[5] = fold change, Day 22, vehicle-treated vs niclosamide-treated lesion, topical niclosamide 2% once daily 3 weeks, AD lesional skin
[6] = fold change, Day 22 vs baseline, topical niclosamide 2% once daily 3 weeks, AD lesional skin
[7] = Day 22 compared to baseline (pre-dosing at Day 1)

Structure (SMILES): O=C(Nc1ccc([N+](=O)[O-])cc1Cl)c1cc(Cl)ccc1O [Niclosamide, niclosamide]
- skin thickness [1]: No differences
- CXCL1 downregulation, 2% niclosamide compared to vehicle (microarray values) [2, 4]: −2.10
- PI3 downregulation, 2% niclosamide compared to vehicle (microarray values) [2, 4]: −1.87
- S100A9 downregulation, 2% niclosamide compared to vehicle (microarray values) [2, 4]: −1.88
- S100A12 downregulation, 2% niclosamide compared to vehicle (microarray values) [2, 4]: −2.30
- ACOT2 expression, Vehicle vs. Niclosamide (Microarray) [2, 5]: −1.35
- ACOX2 expression, Vehicle vs. Niclosamide (Microarray) [2, 5]: −1.40
- CCL2 expression, Vehicle vs. Niclosamide (Microarray) [2, 5]: 1.56
- CCL13 expression, Vehicle vs. Niclosamide (Microarray) [2, 5]: 1.32
- CCL18 expression, Vehicle vs. Niclosamide (Microarray) [2, 5]: 1.66
- CCL20 expression, Vehicle vs. Niclosamide (Microarray) [2, 5]: 2.00
- CCL23 expression, Vehicle vs. Niclosamide (Microarray) [2, 5]: 1.63
- CCL26 expression, Vehicle vs. Niclosamide (Microarray) [2, 5]: 1.69
- CCR1 expression, Vehicle vs. Niclosamide (Microarray) [2, 5]: 1.55
- CCR6 expression, Vehicle vs. Niclosamide (Microarray) [2, 5]: 1.31
- CXCL1 expression, Vehicle vs. Niclosamide (Microarray) [2, 5]: 2.10
- DGAT2 expression, Vehicle vs. Niclosamide (Microarray) [2, 5]: −1.19
- ELOVL3 expression, Vehicle vs. Niclosamide (Microarray) [2, 5]: −1.66
- FA2H expression, Vehicle vs. Niclosamide (Microarray) [2, 5]: −1.57
- FAR2 expression, Vehicle vs. Niclosamide (Microarray) [2, 5]: −1.47
- FAXDC2 expression, Vehicle vs. Niclosamide (Microarray) [2, 5]: −1.29
- IFNGR2 expression, Vehicle vs. Niclosamide (Microarray) [2, 5]: 1.10
- IL1F10 expression, Vehicle vs. Niclosamide (Microarray) [2, 5]: −1.79
- IL4R expression, Vehicle vs. Niclosamide (Microarray) [2, 5]: 1.29
- IL26 expression, Vehicle vs. Niclosamide (Microarray) [2, 5]: 1.78
- KRT79 expression, Vehicle vs. Niclosamide (Microarray) [2, 5]: −2.00
- LCN2 expression, Vehicle vs. Niclosamide (Microarray) [2, 5]: 1.69
- PI 3 expression, Vehicle vs. Niclosamide (Microarray) [2, 5]: 1.87
- PNPLA3 expression, Vehicle vs. Niclosamide (Microarray) [2, 5]: −1.79
- PPARG expression, Vehicle vs. Niclosamide (Microarray) [2, 5]: −1.55
- S100A9 expression, Vehicle vs. Niclosamide (Microarray) [2, 5]: 1.88
- S100A12 expression, Vehicle vs. Niclosamide (Microarray) [2, 5]: 2.30
- SPTLC3 expression, Vehicle vs. Niclosamide (Microarray) [2, 5]: −1.30
- STAT1 expression, Vehicle vs. Niclosamide (Microarray) [2, 5]: 1.13
- STAT3 expression, Vehicle vs. Niclosamide (Microarray) [2, 5]: 1.16
- TNFSF4 expression, Vehicle vs. Niclosamide (Microarray) [2, 5]: 1.35
- ACER1 expression, Niclosamide vs Predose (Microarray) [2, 6]: 1.94
- ACOX2 expression, Niclosamide vs Predose (Microarray) [2, 6]: 1.40
- ACSL1 expression, Niclosamide vs Predose (Microarray) [2, 6]: 1.21
- ANXA6 expression, Niclosamide vs Predose (Microarray) [2, 6]: −1.24
- ANXA9 expression, Niclosamide vs Predose (Microarray) [2, 6]: 1.56
- CCL2 expression, Niclosamide vs Predose (Microarray) [2, 6]: −1.77
- CCL13 expression, Niclosamide vs Predose (Microarray) [2, 6]: −1.40
- CCL18 expression, Niclosamide vs Predose (Microarray) [2, 6]: −1.70
- CCL19 expression, Niclosamide vs Predose (Microarray) [2, 6]: −1.56
- CCL22 expression, Niclosamide vs Predose (Microarray) [2, 6]: −1.83
- CCR1 expression, Niclosamide vs Predose (Microarray) [2, 6]: −1.90
- CCR2 expression, Niclosamide vs Predose (Microarray) [2, 6]: −1.37
- CCR5 expression, Niclosamide vs Predose (Microarray) [2, 6]: −1.40
- CCR6 expression, Niclosamide vs Predose (Microarray) [2, 6]: −1.33
- CCR7 expression, Niclosamide vs Predose (Microarray) [2, 6]: −1.51
- CD2 expression, Niclosamide vs Predose (Microarray) [2, 6]: −1.56
- CD3D expression, Niclosamide vs Predose (Microarray) [2, 6]: −1.63
- CD3G expression, Niclosamide vs Predose (Microarray) [2, 6]: −1.62
- CD28 expression, Niclosamide vs Predose (Microarray) [2, 6]: −1.72
- CD86 expression, Niclosamide vs Predose (Microarray) [2, 6]: −1.60
- CDSN expression, Niclosamide vs Predose (Microarray) [2, 6]: 1.14
- CERS3 expression, Niclosamide vs Predose (Microarray) [2, 6]: 1.13
- CLDN1 expression, Niclosamide vs Predose (Microarray) [2, 6]: 1.17
- CLDN23 expression, Niclosamide vs Predose (Microarray) [2, 6]: 1.42
- CLN8 expression, Niclosamide vs Predose (Microarray) [2, 6]: 1.15
- CXCL1 expression, Niclosamide vs Predose (Microarray) [2, 6]: −2.83
- CXCL2 expression, Niclosamide vs Predose (Microarray) [2, 6]: −1.81
- DGAT2 expression, Niclosamide vs Predose (Microarray) [2, 6]: 1.33
- DHCR7 expression, Niclosamide vs Predose (Microarray) [2, 6]: 1.12
- ELOVL3 expression, Niclosamide vs Predose (Microarray) [2, 6]: 1.81
- EREG expression, Niclosamide vs Predose (Microarray) [2, 6]: 1.19
- FA2H expression, Niclosamide vs Predose (Microarray) [2, 6]: 1.50
- FAR2 expression, Niclosamide vs Predose (Microarray) [2, 6]: 1.48
- FAXDC2 expression, Niclosamide vs Predose (Microarray) [2, 6]: 1.46
- FLG expression, Niclosamide vs Predose (Microarray) [2, 6]: 1.17
- IFNGR2 expression, Niclosamide vs Predose (Microarray) [2, 6]: −1.13
- IL1F10 expression, Niclosamide vs Predose (Microarray) [2, 6]: 1.98
- IL2RA expression, Niclosamide vs Predose (Microarray) [2, 6]: −1.27
- IL4R expression, Niclosamide vs Predose (Microarray) [2, 6]: −1.80
- IL6R expression, Niclosamide vs Predose (Microarray) [2, 6]: −1.25
- IL7R expression, Niclosamide vs Predose (Microarray) [2, 6]: −1.58
- IL12RB2 expression, Niclosamide vs Predose (Microarray) [2, 6]: −1.21
- IL24 expression, Niclosamide vs Predose (Microarray) [2, 6]: −2.19
- IL37 expression, Niclosamide vs Predose (Microarray) [2, 6]: 1.69
- IRF1 expression, Niclosamide vs Predose (Microarray) [2, 6]: −1.37
- KRT23 expression, Niclosamide vs Predose (Microarray) [2, 6]: 1.26
- KRT77 expression, Niclosamide vs Predose (Microarray) [2, 6]: 1.43
- KRT79 expression, Niclosamide vs Predose (Microarray) [2, 6]: 1.91
- LCN2 expression, Niclosamide vs Predose (Microarray) [2, 6]: −1.62
- MMP12 expression, Niclosamide vs Predose (Microarray) [2, 6]: −2.81
- PI 3 expression, Niclosamide vs Predose (Microarray) [2, 6]: −3.13
- PNPLA3 expression, Niclosamide vs Predose (Microarray) [2, 6]: 1.91
- PPL expression, Niclosamide vs Predose (Microarray) [2, 6]: 1.06
- S100A7 expression, Niclosamide vs Predose (Microarray) [2, 6]: −1.17
- S100A8 expression, Niclosamide vs Predose (Microarray) [2, 6]: −1.45
- S100A9 expression, Niclosamide vs Predose (Microarray) [2, 6]: −2.81
- S100A12 expression, Niclosamide vs Predose (Microarray) [2, 6]: −3.62
- S100P expression, Niclosamide vs Predose (Microarray) [2, 6]: −1.35
- SCEL expression, Niclosamide vs Predose (Microarray) [2, 6]: 1.43
- SERPINB1 expression, Niclosamide vs Predose (Microarray) [2, 6]: −1.29
- SERPINB4 expression, Niclosamide vs Predose (Microarray) [2, 6]: −1.54
- SPTLC3 expression, Niclosamide vs Predose (Microarray) [2, 6]: 1.44
- STAT3 expression, Niclosamide vs Predose (Microarray) [2, 6]: −1.13
- TJP3 expression, Niclosamide vs Predose (Microarray) [2, 6]: 1.51
- TNFSF4 expression, Niclosamide vs Predose (Microarray) [2, 6]: −1.64
- inflammatory cells (dendritic cells: CD11c, FceR1 in epidermis, and Langerhans cells: langerin/CD207) [3, 7]: Significant reductions
- total amount of T cells (CD3) in dermis and epidermis [3, 7]: No significant change
- CD11c Dermis expression level ([3]; Day 22 compared to baseline, clinically correlated to TSS): significantly changed
